Test results published in a melting point compilation (Tetko et al.).

SMILES	melting point [°C]
Cc1cccc(C(C)(C)C)c1N=C=O	37
O=C(O)c1cc(Br)c(O)c(Br)c1	271 to 274
N#CCN(CC#N)CC#N	126
C1OC2COCOC2C2OCOCC2O1 (stereo unspecified)	232 to 233
CCCCOc1ccc(CC(=O)NO)cc1	153
NNC(=S)Nc1ccc(F)cc1	171 to 172
Cc1ccccc1F	-62
CN1CCN(Cc2ccccc2N)CC1	87 to 88
CCCCCCCCOc1ccc(C=O)cc1OCCCCCCCC	54 to 56
O=C(O)c1csc(-c2cccnc2)n1	283 to 284
N#Cc1ccc(CC(=O)O)cc1	151
C=C(C)C1CC=C(C(=O)O)CC1 (stereo unspecified)	129 to 135
N#CCCCCCCCCC#N	7
Cc1ccc(C(N)=NO)cc1F	105 to 107
CC(=O)c1ccc(O)cc1C	128
C=C1C(=CC=C2CCCC3(C)C2CCC3C(C)CCCC(C)(C)O)CC(O)CC1O (stereo unspecified)	115
O=C(O)c1ccc(-c2csnn2)cc1	230
COc1ccccc1/N=N/c1c(N)nn2c(-c3ccccc3)cc(=O)[nH]c12	303 to 305
C/C=C/C(=O)N1C(=O)OC[C@@H]1Cc1ccccc1	84 to 85
O=[N+]([O-])c1ccccc1OCCN1CCOCC1	44 to 45
O=[N+]([O-])c1ccc(-c2nnc3n2NC(c2ccc(Cl)cc2)S3)cc1 (stereo unspecified)	220
O=C1NC(=O)C(=NNc2ccc(Br)cc2)C(=O)N1	295

SMILES	melting point [°C]
NC(=O)C=Cc1ccc(C=CC(N)=O)cc1	320
COc1ccc(-c2cc(=O)c3c(O)cc(O)cc3o2)cc1	263
COC(=O)C1=C(N)CCN(Cc2ccccc2)C1	87 to 89
CC(=O)OC1CC2C3CCC(C(C)CCCC(C)C)C3(C)CCC2C2(C)CCC(O)CC12O (stereo unspecified)	141
Oc1c2ccccc2cc2ccccc12	152
N#Cc1cc(O)cc(O)c1	188
Brc1cnc2[nH]ccc2c1	179
CC(=O)c1ccc(F)cc1Br	48 to 50
COc1cc2c(cc1OC)C(c1ccc(F)cc1)N(C(C)=O)CC2 (stereo unspecified)	162 to 164
Cc1ccc(C)n1-c1ccccc1C(=O)O	125
O=C1NCc2ccccc21	151
CCCc1nn(-c2ccccc2)c(=O)n1C(N)=O	133
O=P(c1ccccc1)(c1ccccc1)C1CCCCC1	166
CC(C)SC(C)C	-78.1
S=C=Nc1ccc(OCc2ccccc2)cc1	64
COC(=O)c1ccc(-c2nc(C)no2)cc1	160 to 163
FC(F)(Br)C(F)(F)C(F)(F)C(F)(F)C(F)(F)C(F)(F)C(F)(F)C(F)(F)Br	40
Cc1nc(Cl)c(C#N)c(C)c1Cl	82 to 83
O=C(O)c1cc2cccc([N+](=O)[O-])c2[nH]1	265
C/C(=N\c1ccc(C(=O)O)cc1)c1c(O)c2ccccc2n(-c2ccccc2)c1=O	236 to 238
COC(=O)c1cc([N+](=O)[O-])ccc1SC	130 to 132
Brc1nncs1	70 to 73

SMILES	melting point [°C]
Brc1ccc(Oc2ccc(Br)c(Br)c2)cc1Br	94 to 95
CC(C)(CO)C(O)C(=O)NCCCO (racemic)	68
CSc1nc(N)c2ccccc2n1	233 to 235
CC1NC(=O)NC1=O (stereo unspecified)	151
Cc1onc(-c2c(Cl)cccc2Cl)c1C(N)=O	166 to 168
CCCOC(=O)C1=C(C)NC(=S)NC1c1ccco1 (stereo unspecified)	177
CCCC(C)(COC(N)=O)COC(=O)NC(C)C (stereo unspecified)	92
Cn1nc(-c2cccs2)cc1N	139 to 140
Cc1ccc([Si](C)(Cl)Cl)cc1	57
O=C(O)C(Br)C(Br)C(=O)O (stereo unspecified)	275
O=C(CCCCl)c1ccc(Br)cc1	37
N#CCc1c(C#N)c(N)nc(Cl)c1C#N	257 to 259
C1=CCCCCCCCCCC1	-9
Cc1c(C(=O)CBr)sc2ccc(Cl)cc12	154 to 156
CCC1(C2CCC(OC)CC2)C(=O)NC(=O)NC1=O (stereo unspecified)	239 to 240
CC(=O)c1sc(-c2ccccc2)nc1C	67 to 68
Cc1ccc(-n2c(C)cc(C(=O)CCl)c2C)cc1	81 to 83
Cc1ccc(C(C)C)c(O)c1C(=O)O	127
COc1ccc(-c2ccc(S(=O)(=O)NC(Cc3ccccc3)C(=O)O)cc2)cc1 (stereo unspecified)	179
CCCCCCCCNC(=S)NN	47 to 49
N#Cc1cccc(F)c1	-16
Cc1onc(-c2c(F)cccc2Cl)c1C(N)=S	176

SMILES	melting point [°C]
N#Cc1cc([N+](=O)[O-])ccc1Sc1ccc(Cl)cc1	167 to 168
O=[N+]([O-])c1ccc2c(c1)OCO2	145 to 149
CCOP(=S)(OCC)Oc1cnccn1	-1.7
O=Cc1ccc(-n2cncn2)cc1	147 to 149
Nc1ncn(C2OC(CO)C(O)C2O)c(=O)n1 (stereo unspecified)	229
CCCCCCCCCCCCCCCCCCCCBr	37.5
CCC[C@H]1CCC[C@H]1C (relative stereo)	-104
CC(=O)Nc1cc(N=Nc2ccccc2)c(C)c(NC(C)=O)c1	255
c1cc(NNc2cccc(-n3cccn3)c2)cc(-n2cccn2)c1	169 to 171
Cc1ccc(NC(=O)C(O)C(O)C(=O)O)cc1 (single isomer, unassigned; (-))	191 to 192
CCOC(=O)/C(=N\Nc1ccccc1)C(=O)C(F)(F)F	80 to 82
CCOC(=O)c1c(Cl)cc(C)nc1Cl	53 to 57
Nc1c(F)c(F)nc(F)c1F	86
O=S(=O)(O)c1cccc2cccc(Cl)c12	145 to 147
CC(=O)c1c(-c2c(Cl)cccc2Cl)noc1C	72 to 74
c1ccc(Cc2cc3ccccc3cn2)cc1	64
NC1=C(C(=O)Nc2ccccc2)C(c2ccc(Br)cc2)C2Oc3ccccc3C2O1 (stereo unspecified)	282
Brc1c(Br)c(Br)c(-c2c(Br)c(Br)c(Br)c(Br)c2Br)c(Br)c1Br	375
O=C(O)C=Cc1cccc([N+](=O)[O-])c1	202 to 204
Cc1c(F)cccc1CC#N	47
COc1ccc(-c2cc[nH]n2)cc1	127 to 130
FC(F)C(F)(F)C(F)(F)C(F)(F)C(F)(F)C(F)(F)C(F)(F)C(F)(F)C(F)(F)C(F)F	42 to 43

SMILES	melting point [°C]
Fc1cc(F)c(F)c(F)c1	-48
Cc1cc(O)c(C(c2ccc([N+](=O)[O-])cc2)c2c(O)cc(C)oc2=O)c(=O)o1	238 to 240
CC(C)CC=O	-51
O=c1c2ccccc2[nH]c(=S)n1-c1ccc(F)cc1	337 to 339
CCOC(=O)C(Cl)Cc1cc(-n2nc(C)n(C(F)F)c2=O)c(F)cc1Cl (stereo unspecified)	-22.1
CCCCCCCCCCCCCCCCOCCOCCOCCOCCOCCOCCOCCOCCOCCOCCOCCOCCOCCOCCOCCOCCOCCOCCOCCOCCO	35.4 to 39.6
COc1cccc2c1C(=O)c1c(O)c3c(c(O)c1C2=O)CC(O)(C(=O)CO)CC3OC1CC(N)C(O)C(C)O1 (stereo unspecified)	345
CCOC(=O)c1nn(-c2ccc(C)cc2)c(C)c1C(=O)C1=NOC2C(=O)N(c3ccc(F)cc3)C(=O)C12 (stereo unspecified)	211
O=C(O)COc1nc(Cl)c(Cl)cc1Cl	150
O=C(O)c1c(Cl)ccc(Cl)c1Cl	125
N#CCc1ccc2ccccc2c1	78 to 88
CC1CCC(C(C)C)C(OC(=O)CC#N)C1 (stereo unspecified)	84
CN(C)CCC=C1c2ccccc2CSc2ccccc21	56
COc1ccccc1CN=C=S	28
Cc1c(Cl)ccc([N+](=O)[O-])c1Cl	54
O=C(O)c1cc(I)ccc1Br	175
O=C(NCOC(=O)c1ccc(OCNC(=O)c2ccccc2)cc1)c1ccccc1	176 to 178
CCC(=O)Nc1nc(C)c(Cl)s1	159
COc1ccccc1NC(C)=O	87.5
CCCNC(=O)COC(=O)c1ccccc1	89.5
C=CCOc1ccc(CC(=O)O)cc1Cl	92
O=C1Cc2c1ccc1ccccc21	72

SMILES	melting point [°C]
CC(=O)c1cccc2ccccc12	34
O=C(O)c1ccc(O)cc1Cl	207 to 209
CC(C)Nc1ccccc1	-10
O=C(O)c1ccc(C(=O)O)c(C(=O)O)c1	231
Nc1ccccc1-c1cnco1	54 to 56
O=NN1CCOCC1	29
COc1ccccc1C1Nn2c(nnc2-c2ccc([N+](=O)[O-])cc2)S1 (stereo unspecified)	152
CC(=O)n1c(-c2ccccc2)c(O)c2ccc([N+](=O)[O-])cc21	179
Cc1nc(-c2ccc(C=O)cc2)cs1	101 to 102
COC(=O)c1occc1C	35
CCCCCCCC(=O)CCCCCCC	43
Cn1cnc(C(=O)Oc2c(F)c(F)c(F)c(F)c2F)c1	131 to 132
BrCc1cccc(-n2cccc2)c1	54 to 55
NC(=O)Nc1ccc(Br)cc1	226
NCCNC(=O)CCn1cnc2c(N)ncnc21	196
ClCc1nc2ccccc2[nH]1	146 to 150
Nc1cccc2cc(O)ccc12	191
O=C(O)C(O)(C(F)(F)F)C(F)(F)F	81
NCCCCCCCCCCC(=O)O	191
O=S(=O)(Cl)c1ccc(-c2ccccc2)cc1	115
CCCCCCCCCCCCCCCCCC(=O)Cl	23
